In patent publication US6716853B2, “Cyclic N-substituted alpha-imino carboxylic acids for selective inhibition of collogenase” (Aventis Pharma Deutschland GmbH, priority 2002, dated 2004) one finds IC50 data, which are given here for 13 molecules.

Like-named read-outs stand apart in the source and are kept apart here.

Common to all, as to format: biochemical
The target in assay [1] is T1, human collagenase 3 (MMP-13) catalytic domain (Homo sapiens, UniProt P45452).
T1 construct: catalytic domain of human collagenase 3 (MMP-13); purchased INVITEK, Berlin 30 100 803
Put plainly: Enzymatic activity of the catalytic domain of human collagenase 3 (MMP-13), fluorogenic substrate. The procedure: Determination of the enzymatic activity of the catalytic domain of human collagenase 3 (MMP-13).
Activation of the proenzyme:
2 parts by volume of proenzyme are incubated with 1 part by volume of APMA solution at 37° C. for 1.5 hours. The APMA solution is prepared from a 10 mmol/L
p-aminophenylmercuric acetate solution in […] by dilution with 3 parts by volume of Tris/HCl buffer pH7.5 (see below). The pH is adjusted to between 7.0 and 7.5 by adding 1 mmol/L HCl. After activation of the enzyme it is diluted with the Tris/HCl buffer to a concentration of 1.67 μg/mL.
To measure the enzymic activity, 10 μL of enzyme solution are incubated with 10 μL of a 3% strength (v/v) buffered dimethyl sulfoxide solution (reaction 1) for 15 minutes. To measure the enzyme inhibitory activity, 10 μL of enzyme solution are incubated with 10 μL of a 3% strength (v/v) buffered dimethyl sulfoxide solution which contains the enzyme inhibitor (reaction 2).
The enzymic reaction both in reaction 1 and in reaction 2 is followed, after addition of 10 μL of a 3% strength (v/v) aqueous dimethyl sulfoxide solution which contains 0.75 mmol/L of the substrate, by fluorescence spectroscopy (328 nm (extinction)/393 nm(emission)).
The enzymic activity is represented as increase in extinction/minute.
The inhibitory effect is calculated as percentage inhibition by the following formula:
% inhibition=100−[(increase in extinction/minute in reaction 2)/(increase in extinction/minute in reaction 1)×100].
The IC50, i.e. the inhibitor concentration necessary for 50% inhibition of enzymic activity, is found by plotting a graph of the percentage inhibitions at various inhibitor concentrations.
The buffer solution contains 0.05% Brij (Sigma, Deisenhofen, Germany) and 0.1 mol/L Tris/HCl, 0.1 mol/L NaCl, 0.01 mol/L CaCl2 (pH=7.5).
The enzyme solution contains 1.67 μg/mL of the enzyme domain.
The substrate solution contains 0.75 mmol/L of the fluorogenic substrate (7-methoxycoumarin-4-yl)acetyl-Pro-Leu-Gly-Leu-3-(2,4-dinitrophenyl)-L-2,3-diaminopropionyl-Ala-Arg-NH2 (Bachem, Heidelberg, Germany).

Assay [2] deals with T2, human stromelysin (MMP-3) catalytic domain (Homo sapiens, UniProt P08254).
T2 construct: catalytic domain of human stromelysin (MMP 3); made in house
T2 sequence (P08254 100-272 limits assumed): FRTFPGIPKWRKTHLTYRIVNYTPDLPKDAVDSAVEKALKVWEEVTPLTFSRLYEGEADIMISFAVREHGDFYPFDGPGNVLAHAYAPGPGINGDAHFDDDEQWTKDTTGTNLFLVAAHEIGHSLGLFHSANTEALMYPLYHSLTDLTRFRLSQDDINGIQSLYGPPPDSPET
Put plainly: Enzymatic activity of the catalytic domain of human stromelysin (MMP 3), fluorogenic substrate. The settings on record: Table 2; pH 7.5. As to the method:
(§1) Preparation and determination of the enzymatic activity of the catalytic domain of human stromelysin (MMP 3) and neutrophil collagenase (MMP8).
(§2) The two enzymes—stromelysin (MMP-3) and neutrophil collagenase (MMP-8)—were prepared as described by Ye et al. (Biochemistry; 31 (1992) pages 11231-11235). To measure the enzymic activity or the enzyme inhibitory effect, 70 μl of buffer solution and 10 μl of enzyme solution are incubated at physiological pH with 10 μl of a 10% strength (v/v) aqueous dimethyl sulfoxide solution which optionally contains the enzyme inhibitor for 15 minutes. After addition of 10 μl of a 10% strength (v/v) aqueous dimethyl sulfoxide solution which contains 1 mmol/l of the substrate, the enzymic reaction is followed by fluorescence spectroscopy (328 nm (ex)/393 nm(em)).
(§3) The enzymic activity is represented as increase in extinction/minute. The IC50 values listed in table 2 are measured as the inhibitor concentrations leading in each case to 50% inhibition of the enzyme.
(§4) The buffer solution contains 0.05% Brij (Sigma, Deisenhofen, Germany) and 0.1 mol/l Tris/HCl, 0.1 mol/l NaCl, 0.01 mol/l CaCl2 and 0.1 mol/l piperazine-N,N′-bis[2-ethanesulfonic acid] (pH=7.5).
(§5) The enzyme solution contains 5 μg/ml of one of the enzyme domains prepared as described by Ye et al. The substrate solution contains 1 mmol/l of the fluorogenic substrate (7-methoxycoumarin-4-yl)acetyl-Pro-Leu-Gly-Leu-3-(2,4-dinitrophenyl)-L-2,3-diaminopropionyl-Ala-Arg-NH2 (Bachem, Heidelberg, Germany).

In assay [3] the target is T3, human neutrophil collagenase (MMP-8) catalytic domain (Homo sapiens, UniProt P22894).
T3 construct: catalytic domain of human stromelysin (MMP 3) and neutrophil collagenase (MMP8); made in house
T3 sequence (P22894 100-262 limits assumed): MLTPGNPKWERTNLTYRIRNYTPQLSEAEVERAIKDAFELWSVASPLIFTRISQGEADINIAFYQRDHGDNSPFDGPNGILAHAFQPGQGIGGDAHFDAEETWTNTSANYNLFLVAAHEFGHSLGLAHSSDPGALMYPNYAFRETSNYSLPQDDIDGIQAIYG
Kind of assay: Enzymatic activity of the catalytic domain of human neutrophil collagenase (MMP 8), fluorogenic substrate. The note with it: Table 2; pH 7.5. As to the method: as §1, §2, §3, §4, §5

The mark [4] stands for this setting: Table 3, comparative examples, determination as described above, read-out: MMP 13.
[5] abbreviates: Table 2, pH 7.5, read-out: MMP 13 IC50.

For `O=C(O)[C@H]1Cc2ccccc2CN1S(=O)(=O)c1ccc(-c2ccc(Cl)cc2)cc1` [Example 35, reference compound], in assay [1] (setting [4]), the IC50 is 30 nM.

Turning to `CC(C)COC(=O)Nc1ccc(-c2ccc(S(=O)(=O)N3Cc4ccccc4C[C@@H]3C(=O)O)cc2)cc1` [Example 4], the IC50 in assay [1] (setting [5]) worked out at 20 nM; in assay [2] it was 2000 nM; in assay [3] it was 3000 nM.

`Cn1cnc2c1C[C@H](C(=O)O)N(S(=O)(=O)c1ccc(-c3ccc(NC(=O)OCC4CC4)cc3)cc1)C2` [Example 10]: the IC50 was 20 nM in assay [1] (setting [5]), greater than 10000 nM in assay [2] and 700 nM in assay [3].

As for `CC(C)OC(=O)Nc1ccc(-c2ccc(S(=O)(=O)N3Cc4ncn(C)c4C[C@@H]3C(=O)O)cc2)cc1` [Example 6], the IC50 was 80 nM in assay [1] (setting [5]) and 4000 nM in assay [3].

On to `CC(C)COC(=O)Nc1ccc(-c2ccc(S(=O)(=O)N3Cc4ncn(C)c4C[C@@H]3C(=O)O)cc2)cc1` [Example 9], for which the IC50 is 60 nM in assay [1] (setting [5]) and 200 nM in assay [3].

`O=C(Nc1ccc(-c2ccc(S(=O)(=O)N3Cc4ccccc4C[C@@H]3C(=O)O)cc2)cc1)OCC1CC1` [Example 5]: the IC50 in assay [1] (setting [5]) amounted to 20 nM; in assay [2], 3000 nM; in assay [3], 4000 nM.

Consider `CCCCCCOC(=O)Nc1ccc(-c2ccc(S(=O)(=O)N3Cc4ccccc4C[C@@H]3C(=O)O)cc2)cc1` [Example 3], for which the IC50 was 70 nM in assay [1] (setting [5]), greater than 10000 nM in assay [2] and 2000 nM in assay [3].

Turning to `CN(C)c1ccc(-c2ccc(S(=O)(=O)N3Cc4ccccc4C[C@@H]3C(=O)O)cc2)cc1` [Example 39, reference compound], the IC50 in assay [1] (setting [4]) came out at 2.9 nM.

As for `CCOC(=O)Nc1ccc(-c2ccc(S(=O)(=O)N3Cc4ccccc4C[C@@H]3C(=O)O)cc2)cc1` [Example 1], the IC50 in assay [1] (setting [5]) came to 40 nM; in assay [2], 3000 nM; in assay [3], 2300 nM.

For `O=C(O)[C@H]1Cc2ccccc2CN1S(=O)(=O)c1ccc(-c2ccccc2)cc1` [Example 34, reference compound], in assay [1] (setting [4]), the IC50 was 50 nM.

On to `CC(C)OC(=O)Nc1ccc(-c2ccc(S(=O)(=O)N3Cc4ccccc4C[C@@H]3C(=O)O)cc2)cc1` [Example 2, 2-(4′-Isopropoxycarbonylaminobiphenyl-4-sulfonyl)-1,2,3,4-tetrahydroisocquinoline-3-(R)-carboxylic acid], for which the IC50 in assay [1] (setting [5]) amounted to 30 nM; in assay [2], 3000 nM; in assay [3], 6000 nM.

For the molecule `Cn1cnc2c1C[C@H](C(=O)O)N(S(=O)(=O)c1ccc(-c3ccc(NC(=O)OCc4ccccc4)cc3)cc1)C2` [Example 7], the IC50 in assay [1] (setting [5]) is 60 nM; in assay [2] it was greater than 10000 nM; in assay [3], 1000 nM.

Regarding `Cn1cnc2c1C[C@H](C(=O)O)N(S(=O)(=O)c1ccc(-c3ccc(NC(=O)OCC(C)(C)C)cc3)cc1)C2` [Example 8], the IC50 was 70 nM in assay [1] (setting [5]), greater than 10000 nM in assay [2] and 5000 nM in assay [3].
